Biological target: T1, human GLP-1 receptor (Homo sapiens, UniProt P43220)
T1 construct: expressed in transfected cells
Experiment: GLP-1R cAMP Assay
Assay type: cell-based
Details: cAMP accumulation in CHO cells stably overexpressing the human GLP-1 receptor; 30 min treatment; HitHunter cAMP kit; read-out: EC50
Description: cAMP accumulation was measured in Chinese hamster ovary (CHO) cells stably overexpressing the human GLP-1 receptor using the HitHunter cAMP Assay for Small Molecules Kit (Eurofins). Briefly, cells were grown in Ham's F12 Nutrient Mix with 10% FBS, and lifted with Cell Dissociation Buffer, Enzyme free, PBS based (ThermoFisher). […] The anti-cAMP antibody reagent was then added to cells at a 1:2 ratio and 5 μL of mixture was seeded in 384-well small volume white assay plates, at 10,000 cells/well. Cells were then treated with 50 nL compound using an ECHO 550 acoustic dispenser (Labcyte) in a 20-point dose response format in triplicate for 30 min. Cells were then lysed, and detection reagents added according to the manufacturer's protocol. After overnight incubation, luminescence was measured using a Perkin Elmer Envision plate reader. Dose response curves were analyzed using GraphPad Prism 9.0.

T1 sequence (P43220 24-463): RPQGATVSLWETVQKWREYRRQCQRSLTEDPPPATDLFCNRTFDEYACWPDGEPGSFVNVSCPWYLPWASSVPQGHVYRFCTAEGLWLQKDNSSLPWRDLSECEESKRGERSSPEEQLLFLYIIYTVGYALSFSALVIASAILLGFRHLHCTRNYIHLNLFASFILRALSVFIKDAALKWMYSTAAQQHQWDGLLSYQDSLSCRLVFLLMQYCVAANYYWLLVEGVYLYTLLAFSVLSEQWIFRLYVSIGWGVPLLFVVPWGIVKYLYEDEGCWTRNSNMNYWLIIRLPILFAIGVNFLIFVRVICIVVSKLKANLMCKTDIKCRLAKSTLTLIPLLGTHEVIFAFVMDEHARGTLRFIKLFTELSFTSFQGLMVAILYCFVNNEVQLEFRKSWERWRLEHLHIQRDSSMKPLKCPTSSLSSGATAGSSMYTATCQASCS

Row | Compound | EC50 [nM]
1 | CCn1cncc1Cn1c(CN2CCC(Cc3cccc(COc4ccc(C5CC5)cc4Cl)n3)CC2)nc2ccc(C(=O)O)cc21 [Compound 153, 2-{[4-({6-[(2-chloro-4-cyclopropylphenoxy)methyl]pyridin-2-yl}methyl)piperidin-1-yl]methyl}-1-[(1-ethyl-1H-imidazol-5-yl)methyl]-1H-1,3-benzodiazole-6-carboxylic acid] | < 50
2 | C[C@H]1C[C@@H](Oc2ccnc(COc3ccc(C(F)(F)F)cc3F)n2)CCN1Cc1nc2ccc(C(=O)O)cc2n1C[C@@H]1CCO1 [Compound 376] | < 50
3 | Cc1ccc(N(C)c2ccc(C3CC3)c(C(=O)N3CCN(Cc4nc5ccc(C(=O)O)cc5n4C[C@@H]4CCO4)CC3)c2)c(Cl)c1 [Compound 93, 2-[(4-{5-[(2-chloro-4-methylphenyl)(methyl)amino]-2-cyclopropylbenzoyl}piperazin-1-yl)methyl]-1-{[(2S)-oxetan-2-yl]methyl}-1H-1,3-benzodiazole-6-carboxylic acid] | 50 to 500
4 | O=C(O)c1ccc2nc(CN3CCC(Cc4cccc(COc5ccc(Cl)cc5Cl)c4)CC3)n(C[C@@H]3CCCO3)c2c1 [Compound 151, 2-{[4-({3-[(2,4-dichlorophenoxy)methyl]phenyl}methyl)piperidin-1-yl]methyl}-1-{[(2S)-oxolan-2-yl]methyl}-1H-1,3-benzodiazole-6-carboxylic acid] | < 50
5 | O=C(O)c1ccc2nc(CN3CCC(Cc4cccc(COc5ccc(Cl)cc5Cl)c4)CC3)n(C[C@H]3CCOC3)c2c1 [Compound 148, 2-{[4-({3-[(2,4-dichlorophenoxy)methyl]phenyl}methyl)piperidin-1-yl]methyl}-1-{[(3R)-oxolan-3-yl]methyl}-1H-1,3-benzodiazole-6-carboxylic acid] | < 50
6 | C[C@H]1CN(C(=O)c2cnc(COc3ccc(Cl)cc3Cl)o2)CCN1Cc1nc2ccc(C(=O)O)cc2n1C[C@@H]1CCO1 [Example 186, 2-(((S)-4-(2-((2,4-Dichlorophenoxy)methyl)oxazole-5-carbonyl)-2-methylpiperazin-1-yl)methyl)-1-(((S)-oxetan-2-yl)methyl)-1H-benzo[d]imidazole-6-carboxylic acid] | < 50
7 | O=C(O)c1ccc2nc(CN3CCC(Cc4cccc(COc5ccc(C6CC6)cc5Cl)n4)CC3)n(C[C@@H]3CCO3)c2c1 [Example 152, (S)-2-((4-((6-((2-Chloro-4-cyclopropylphenoxy)methyl)pyridin-2-yl)methyl)piperidin-1-yl)methyl)-1-(oxetan-2-ylmethyl)-1H-benzo[d]imidazole-6-carboxylic acid] | < 50
8 | CCn1cncc1Cn1c(CN2CCN(C(=O)c3cccc(Cc4ccc(C)cc4Cl)c3)CC2)nc2ccc(C(=O)O)cc21 [Compound 56, 2-[(4-{3-[(2-chloro-4-methylphenyl)methyl]benzoyl}piperazin-1-yl)methyl]-1-[(1-ethyl-1H-imidazol-5-yl)methyl]-1H-1,3-benzodiazole-6-carboxylic acid] | 50 to 500
9 | CCn1cncc1Cn1c(CN2CCN(C(=O)c3ccc(COc4ccc(Cl)cc4Cl)s3)CC2)nc2ccc(C(=O)O)cc21 [Compound 71, 2-[(4-{5-[(2,4-dichlorophenoxy)methyl]thiophene-2-carbonyl}piperazin-1-yl)methyl]-1-[(1-ethyl-1H-imidazol-5-yl)methyl]-1H-1,3-benzodiazole-6-carboxylic acid] | > 500
10 | N#Cc1cc(F)c(F)cc1OCc1nccc(OC2CCN(Cc3nc4ccc(C(=O)O)cc4n3C[C@@H]3CCO3)CC2)n1 [Compound 504, 2-{[4-({2-[(2-cyano-4,5-difluorophenoxy)methyl]pyrimidin-4-yl}oxy)piperidin-1-yl]methyl}-1-{[(2S)-oxetan-2-yl]methyl}-1H-1,3-benzodiazole-6-carboxylic acid] | < 50
11 | N#Cc1ccc(OCc2cc(OC3CCN(Cc4nc5ccc(C(=O)O)cc5n4C[C@@H]4CCO4)CC3)cnn2)c(F)c1 [Compound 491, 2-{[4-({6-[(4-cyano-2-fluorophenoxy)methyl]pyridazin-4-yl}oxy)piperidin-1-yl]methyl}-1-{[(2S)-oxetan-2-yl]methyl}-1H-1,3-benzodiazole-6-carboxylic acid] | < 50
12 | COC(=O)c1ccc2nc(CN3CCN(C(=O)c4cccc(Oc5ccc(C)cc5Cl)c4)CC3)n(C[C@@H]3CCO3)c2c1 [Compound 23, methyl 2-({4-[3-(2-chloro-4-methylphenoxy)benzoyl]piperazin-1-yl}methyl)-1-{[(2S)-oxetan-2-yl]methyl}-1H-1,3-benzodiazole-6-carboxylate] | > 500
13 | O=C(O)c1ccc2nc(CN3CCC(Oc4ccnc(COc5ccc(Cl)cc5F)c4)CC3)n(Cc3cnco3)c2c1 [Compound 265, 2-{[4-({2-[(4-chloro-2-fluorophenoxy)methyl]pyridin-4-yl}oxy)piperidin-1-yl]methyl}-1-[(1,3-oxazol-5-yl)methyl]-1H-1,3-benzodiazole-6-carboxylic acid] | < 50
14 | Cc1ccc(Nc2cccc(C(=O)N3CCN(Cc4nc5ccc(C(=O)O)cc5n4C[C@@H]4CCO4)CC3)c2)c(Cl)c1 [Compound 50, 2-[(4-{3-[(2-chloro-4-methylphenyl)amino]benzoyl}piperazin-1-yl)methyl]-1-{[(2S)-oxetan-2-yl]methyl}-1H-1,3-benzodiazole-6-carboxylic acid] | > 500
15 | N#Cc1ccc(OCc2nccc(OC3CCN(Cc4nc5ccc(C(=O)O)cc5n4C[C@@H]4CCO4)CC3)n2)c(Cl)c1 [Compound 369] | < 50
16 | CCn1cncc1Cn1c(CN2CCC([C@H](F)c3cccc(COc4ccc(Cl)cc4Cl)c3)CC2)nc2ccc(C(=O)O)cc21 (single isomer, unassigned) [Compound 202] | < 50
17 | Cc1ccccc1OCc1ccc(C(=O)N2CCN(Cc3nc4ccc(C(=O)O)cc4n3C[C@@H]3CCO3)CC2)o1 [Compound 43, 2-[(4-{5-[(2-methylphenoxy)methyl]furan-2-carbonyl}piperazin-1-yl)methyl]-1-{[(2S)-oxetan-2-yl]methyl}-1H-1,3-benzodiazole-6-carboxylic acid] | > 500
18 | Cc1ccc(N(C)c2ccc(C)c(C(=O)N3CCN(Cc4nc5ccc(C(=O)O)cc5n4C[C@@H]4CCO4)CC3)c2)c(Cl)c1 [Compound 75, 2-[(4-{5-[(2-chloro-4-methylphenyl)(methyl)amino]-2-methylbenzoyl}piperazin-1-yl)methyl]-1-{[(2S)-oxetan-2-yl]methyl}-1H-1,3-benzodiazole-6-carboxylic acid] | < 50
19 | N#Cc1ccc(OCc2nccc(OC3CCN(Cc4nc5c(F)cc(C(=O)O)cc5n4C[C@@H]4CCO4)CC3)n2)c(F)c1 [Compound 328] | < 50
20 | O=C(O)c1ccc2nc(CN3CCN(C(=O)c4cccc(Oc5ccc(C(F)(F)F)cc5Cl)c4)CC3)n(C[C@@H]3CCO3)c2c1 [Example 2, (S)-2-((4-(3-(2-Chloro-4-(trifluoromethyl)phenoxy)benzoyl)piperazin-1-yl)methyl)-1-(oxetan-2-ylmethyl)-1H-benzo[d]imidazole-6-carboxylic acid] | > 500
21 | O=C(O)c1ccc2nc(CN3CCC(Oc4ccnc(COc5ccc(Cl)cc5F)c4)CC3)n(CC34CC(CO3)C4)c2c1 [Compound 333] | < 50
22 | O=C(O)c1ccc2nc(CN3CCC(Oc4ccnc(COc5ccc(F)cc5Cl)n4)CC3)n(C[C@@H]3CCO3)c2n1 [Compound 370] | < 50
23 | C[C@H]1C[C@@H](Oc2ccnc(COc3ccc(C#N)cc3F)n2)CCN1Cc1nc2c(F)cc(C(=O)O)cc2n1C[C@@H]1CCO1 [Compound 323] | < 50
24 | CCn1cncc1Cn1c(CN2CC[C@H](Cc3cnc(COc4ccc(Cl)cc4Cl)o3)C[C@@H]2C)nc2ccc(C(=O)O)cc21 [Compound 279, 2-{[(2S,4S)-4-({2-[(2,4-dichlorophenoxy)methyl]-1,3-oxazol-5-yl}methyl)-2-methylpiperidin-1-yl]methyl}-1-[(1-ethyl-1H-imidazol-5-yl)methyl]-1H-1,3-benzodiazole-6-carboxylic acid] | < 50
25 | N#CCC1(Cn2c(CN3CCC(Oc4ccnc(COc5ccc(F)cc5C#N)n4)CC3)nc3c(F)cc(C(=O)O)cc32)CC1 [Compound 349] | < 50
26 | O=C(O)c1ccc2nc(CN3CCC(Cc4cccc(COc5ccc(Cl)cc5Cl)c4F)CC3)n(C[C@@H]3CCO3)c2c1 [Compound 135, 2-{[4-({3-[(2,4-dichlorophenoxy)methyl]-2-fluorophenyl}methyl)piperidin-1-yl]methyl}-1-{[(2S)-oxetan-2-yl]methyl}-1H-1,3-benzodiazole-6-carboxylic acid] | 50 to 500
27 | N#Cc1ccc(OCc2nccc(O[C@H]3CCN(Cc4nc5ccc(C(=O)O)cc5n4C[C@@H]4CCO4)[C@@H](CF)C3)n2)c(F)c1 [Example 490, 2-(((2R,4S)-4-((2-((4-Cyano-2-fluorophenoxy)methyl)pyrimidin-4-yl)oxy)-2-(fluoromethyl)piperidin-1-yl)methyl)-1-(((S)-oxetan-2-yl)methyl)-1H-benzo[d]imidazole-6-carboxylic acid] | < 50
28 | O=C(O)c1ccc2nc(CN3CCC(Oc4ccnc(COc5ccc(Cl)cc5Cl)c4)CC3)n(C[C@@H](O)CCO)c2c1 [Compound 227, 2-{[4-({2-[(2,4-dichlorophenoxy)methyl]pyridin-4-yl}oxy)piperidin-1-yl]methyl}-1-[(2S)-2,4-dihydroxybutyl]-1H-1,3-benzodiazole-6-carboxylic acid] | < 50
29 | CCn1cncc1Cn1c(CN2CCC(Oc3ccnc(COc4ccc(Cl)cc4F)c3)CC2)nc2ccc(C(=O)O)cc21 [Example 230, 2-((4-((2-((4-Chloro-2-fluorophenoxy)methyl)pyridin-4-yl)oxy)piperidin-1-yl)methyl)-1-((1-ethyl-1H-imidazol-5-yl)methyl)-1H-benzo[d]imidazole-6-carboxylic acid] | < 50

— patent US20230089073A1 (Carmot Therapeutics, Inc., priority 2021, published 2023)
